Experimental data reported in ChEMBL document CHEMBL5550144, “Lysine-homologue substitution: Impact on antimicrobial activity and proteolytic stability of cationic stapled heptapeptides” (Bioorg Med Chem, 2024).
Values after ≈ are worked out from the molar mass of the structure shown. Positions of bridges follow the written chain, without caps; N, C: chain ends. Non-standard residues stand in square brackets, D forms with d. Residues, ends and D or L forms follow the SMILES beside them. S5 = C=CCCC[C@](C)(N)C(=O)O; Nle = CCCC[C@H](N)C(=O)O; Orn = NCCC[C@H](N)C(=O)O; Dab = NCC[C@H](N)C(=O)O; Dap = NC[C@H](N)C(=O)O

Experiments:
Pseudomonas aeruginosa = test: Antimicrobial activity against Pseudomonas aeruginosa ATCC 27853 assessed as inhibition of bacterial growth measured for 24 hrs by standard broth microdilution method; assay type: functional
Staphylococcus aureus = test: Antimicrobial activity against Staphylococcus aureus ATCC 6538p assessed as inhibition of bacterial growth measured for 24 hrs by standard broth microdilution method; assay type: functional
Escherichia coli = test: Antimicrobial activity against Escherichia coli ATCC 25922 assessed as inhibition of bacterial growth measured for 24 hrs by standard broth microdilution method; assay type: functional
[1] = tested on: Staphylococcus epidermidis; test: Antimicrobial activity against Staphylococcus epidermidis ATCC 12228 assessed as inhibition of bacterial growth measured for 24 hrs by standard broth microdilution method; assay type: functional
Shigella dysenteriae = test: Antimicrobial activity against Shigella dysenteriae ATCC 9752 assessed as inhibition of bacterial growth measured for 24 hrs by standard broth microdilution method; assay type: functional
Salmonella typhimurium = test: Antimicrobial activity against Salmonella enterica subsp. enterica serovar Typhimurium ATCC 14028 assessed as inhibition of bacterial growth measured for 24 hrs by standard broth microdilution method; assay type: functional
[2] = Hemolytic activity in human Red blood cells assessed as hemolysis rate at 24 uM incubated for 30 mins by absorbance based analysis relative to control; assay type: toxicity, cell-based, Erythrocyte; conditions: read-out: Activity
Klebsiella pneumoniae = test: Antimicrobial activity against Klebsiella pneumoniae ATCC 10031 assessed as inhibition of bacterial growth measured for 24 hrs by standard broth microdilution method; assay type: functional
Trypsin [3] = target: T1, Trypsin (Homo sapiens, UniProt P07477+P07478+P35030); test: Proteolytic stability of compound assessed as trypsin (unknown origin) mediated drug degradation by measuring half life measured at 10 to 60 mins by HPLC analysis; assay type: ADME, protein assay; conditions: time 10-60 min
Trypsin [4] = target: T1, Trypsin; test: Proteolytic stability of compound assessed as trypsin (unknown origin) mediated drug degradation measured at 10 to 60 mins by HPLC analysis; assay type: ADME, protein assay; conditions: time 10-60 min, read-out: Drug degradation
Trypsin [5] = target: T1, Trypsin; test: Proteolytic stability of compound assessed as trypsin (unknown origin) mediated drug hydrolysis measured at 10 to 60 mins by HPLC analysis; assay type: ADME, protein assay; conditions: time 10-60 min, read-out: Drug degradation
Trypsin [6] = target: T1, Trypsin; test: Proteolytic stability of compound assessed as trypsin (unknown origin) mediated drug degradation by measuring parent compound remaining measured at 10 to 60 mins by HPLC analysis; assay type: ADME, protein assay; conditions: time 10-60 min

Structure (SMILES) | MIC (Pseudomonas aeruginosa) | MIC (Staphylococcus aureus) | MIC (Escherichia coli) | MIC [1] | MIC (Shigella dysenteriae) | MIC (Salmonella typhimurium) | hemolysis at 0.5 h, 24 µM [2] | MIC (Klebsiella pneumoniae) | half-life (Trypsin [3]) | metabolised (Trypsin [4]) | metabolised (Trypsin [5]) | Stability (Trypsin [6])
C[C@@]1(C(=O)N[C@@H](CCCCN)C(N)=O)CCC/C=C/CCC[C@](C)(NC(=O)[C@@H](N)CCCCN)C(=O)N[C@@H](Cc2c[nH]c3ccccc23)C(=O)N[C@@H](CCCCN)C(=O)N[C@@H](CCC(=O)O)C(=O)N1 (H-K[S5]WKE[S5]K-NH2; staple (E) 2-6) | > 100 µg/mL | > 100 µg/mL | > 100 µg/mL | > 100 µg/mL | > 100 µg/mL | > 100 µg/mL | < 0.1% | > 100 µg/mL | – | – | – | –
CCCC[C@@H]1NC(=O)[C@H](CCCCN)NC(=O)[C@H](Cc2c[nH]c3ccccc23)NC(=O)[C@@](C)(NC(=O)[C@@H](N)CCCCN)CCC/C=C/CCC[C@@](C)(C(=O)N[C@@H](CCCCN)C(N)=O)NC1=O (H-K[S5]WK[Nle][S5]K-NH2; staple (E) 2-6) | 25 µg/mL (≈ 26.3 µM) | 12.5 µg/mL (≈ 13.1 µM) | 25 µg/mL (≈ 26.3 µM) | 6.3 µg/mL (≈ 6.62 µM) | 12.5 µg/mL (≈ 13.1 µM) | 50 µg/mL (≈ 52.6 µM) | 0.5% | 50 µg/mL (≈ 52.6 µM) | 1.33 h | > 40% | – | –
CCCC[C@@H]1NC(=O)[C@H](CCN)NC(=O)[C@H](Cc2c[nH]c3ccccc23)NC(=O)[C@@](C)(NC(=O)[C@@H](N)CCN)CCC/C=C/CCC[C@@](C)(C(=O)N[C@@H](CCN)C(N)=O)NC1=O (H-[Dab][S5]W[Dab][Nle][S5][Dab]-NH2; staple (E) 2-6) | 50 µg/mL (≈ 57.7 µM) | 25 µg/mL (≈ 28.8 µM) | 25 µg/mL (≈ 28.8 µM) | 12.5 µg/mL (≈ 14.4 µM) | 25 µg/mL (≈ 28.8 µM) | 50 µg/mL (≈ 57.7 µM) | 0.1% | 50 µg/mL (≈ 57.7 µM) | 4.82 h | – | 11% | –
CCCC[C@@H]1NC(=O)[C@H](CN)NC(=O)[C@H](Cc2c[nH]c3ccccc23)NC(=O)[C@@](C)(NC(=O)[C@@H](N)CN)CCC/C=C/CCC[C@@](C)(C(=O)N[C@@H](CN)C(N)=O)NC1=O (H-[Dap][S5]W[Dap][Nle][S5][Dap]-NH2; staple (E) 2-6) | 50 µg/mL (≈ 60.6 µM) | 12.5 µg/mL (≈ 15.2 µM) | 25 µg/mL (≈ 30.3 µM) | 25 µg/mL (≈ 30.3 µM) | 25 µg/mL (≈ 30.3 µM) | 50 µg/mL (≈ 60.6 µM) | 0.2% | 50 µg/mL (≈ 60.6 µM) | 6.38 h | – | – | > 90%
CCCC[C@@H]1NC(=O)[C@H](CCCN)NC(=O)[C@H](Cc2c[nH]c3ccccc23)NC(=O)[C@@](C)(NC(=O)[C@@H](N)CCCN)CCC/C=C/CCC[C@@](C)(C(=O)N[C@@H](CCCN)C(N)=O)NC1=O (H-[Orn][S5]W[Orn][Nle][S5][Orn]-NH2; staple (E) 2-6) | 18.8 µg/mL (≈ 20.7 µM) | 12.5 µg/mL (≈ 13.7 µM) | 25 µg/mL (≈ 27.5 µM) | 6.3 µg/mL (≈ 6.93 µM) | 12.5 µg/mL (≈ 13.7 µM) | 25 µg/mL (≈ 27.5 µM) | 0.4% | 37.5 µg/mL (≈ 41.2 µM) | 4.3 h | – | 11% | –
